From the supplement of paper PMC8967900

Experiments:
Assay in all cases: selective drug sensitivity score (sDSS, relative to normal bone marrow) (sDSS (score)); higher = more potent and effective on the cell line relative to normal bone marrow cells
Details in all cases: 72 h
[1] = test system: CCRF-CEM
[2] = test system: PF-382
[3] = test system: MHH-CALL-4
[4] = test system: COG-LL-355h
[5] = test system: KASUMI-2
[6] = test system: ALL-SIL
[7] = test system: NALM-6
[8] = test system: JURKAT
[9] = test system: 697
[10] = test system: CCRF-HSB2
[11] = test system: MOLT-14
[12] = test system: REH
[13] = test system: RCH-ACV
[14] = test system: KARPAS-45
[15] = test system: NALL-1
[16] = test system: KOPN-8
[17] = test system: P12-ICHIKAWA
[18] = test system: MN-60
[19] = test system: COG-LL-319h
[20] = test system: SEM cells
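Further: ALL cell lines in 384-well plates, five doses spanning 10,000-fold, each plate scaled between vehicle and 100 µmol/L benzalkonium chloride controls, sDSS an adapted area-under-curve metric.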

Structure (SMILES)	selective drug sensitivity score [1]	selective drug sensitivity score [2]	selective drug sensitivity score [3]	selective drug sensitivity score [4]	selective drug sensitivity score [5]	selective drug sensitivity score [6]	selective drug sensitivity score [7]	selective drug sensitivity score [8]	selective drug sensitivity score [9]	selective drug sensitivity score [10]	selective drug sensitivity score [11]	selective drug sensitivity score [12]	selective drug sensitivity score [13]	selective drug sensitivity score [14]	selective drug sensitivity score [15]	selective drug sensitivity score [16]	selective drug sensitivity score [17]	selective drug sensitivity score [18]	selective drug sensitivity score [19]	selective drug sensitivity score [20]
O=C1c2c(O)ccc(O)c2C(=O)c2c(NCCNCCO)ccc(NCCNCCO)c21 [Mitoxantrone] (top concentration 1000 nM)	10.8	-1.86	11.1	7.94	12.3	7.44	2.44	-3.86	15.6	14.2	11.6	12.6	16.2	-1.66	-5.06	16.3	8.84	-3.86	16.3	8.04
CC1(C)CNc2cc(NC(=O)c3cccnc3NCc3ccncc3)ccc21 [Motesanib] (top concentration 10000 nM)	-0.22	-0.22	-0.22	-0.22	-0.22	-0.22	1.28	-0.22	-0.22	1.08	-0.22	-0.22	-0.22	-0.22	-0.22	-0.22	-0.22	-0.22	0.08	-0.22
CCCN(CCC)C(=O)C1=Cc2ccc(-c3ccc(C(=O)N4CCCC4)cc3)cc2N=C(N)C1 [Motolimod] (top concentration 10000 nM)	-3.38	-2.28	-4.48	-2.38	-4.48	-3.48	-3.38	-2.58	-2.68	-3.48	-4.28	-2.48	-1.68	-3.48	-4.48	1.52	-3.18	-4.48	-4.18	-3.38
Cc1cc(-c2ncc(CC(=O)Nc3ccc(-c4cnccn4)cn3)cc2C)ccn1 [NVP-LGK974] (top concentration 10000 nM)	-0.5	2.7	3.5	3.3	1	0	3.7	7.3	5.6	0.5	1	4	5.6	4.6	1.5	2.6	3.2	4.7	-1.3	2.2
CC1(C)NC(=O)N(c2ccc([N+](=O)[O-])c(C(F)(F)F)c2)C1=O [Nilutamide] (top concentration 10000 nM)	-0.48	-0.08	2.02	-0.48	-0.48	0.82	1.82	1.32	0.22	-0.48	-0.48	0.22	-0.48	-0.48	7.02	-0.48	-0.48	-0.48	-0.48	-0.48
CNC(=O)c1ccc2cc([C@@]3(O)CCn4cncc43)ccc2c1 [Orteronel] (top concentration 10000 nM)	0	0	0	0	4.6	0	0	0	0	0	0	0	0	0	0	1	0	0	4.9	0
C=CCc1cccc(/C=N/NC(=O)CN2CCN(Cc3ccccc3)CC2)c1O [PAC-1] (top concentration 10000 nM)	5.18	2.78	1.18	2.08	-0.72	3.18	2.18	1.28	4.08	1.78	8.28	3.48	1.18	3.28	-0.42	5.28	1.68	4.08	1.18	2.98
O=C(Nc1cccnc1)N1CCC(Cc2cccc(Oc3ccc(C(F)(F)F)cn3)c2)CC1 [PF-3845] (top concentration 10000 nM)	-0.44	1.96	0.96	-0.54	-0.24	-0.84	2.86	6.36	4.06	3.26	2.26	2.96	5.66	3.96	-1.24	0.46	3.26	3.06	-0.04	0.96
COc1cc(Br)c(Nc2nc(-c3c(C)nc4ncccn34)cs2)c(Br)c1 [PTC-209] (top concentration 10000 nM)	0.52	-0.68	-2.68	-0.38	-2.68	0.42	2.22	0.62	5.62	0.72	-0.88	3.62	7.12	0.02	-1.78	4.82	0.42	0.42	4.12	2.42
